Source: patent publication US5043268A, “Substrates and inhibitors for prenyl cysteine methyltransferase enzymes” (The Trustees of Princeton University, priority 1990, dated 1991)

Molecular target: prenyl cysteine methyltransferase (Bos taurus, UniProt A0AAA9SD88)
Assay: Prenyl cysteine methyltransferase assay (3H-methyl transfer from S-adenosylmethionine to AFC, vapor-phase equilibrium)
Type: biochemical
Details: 5.0 μM (3H-methyl)-S-adenosylmethionine, 83,000×g pellet of bovine brain, 37° C., pH 7.9
Procedure: To a putative source of prenyl cysteine methyl transferase enzyme is added 50 μM of N-acetyl-S-farnesyl cysteine ("AFC") and 5.0 μM (^3 H-methyl)-S-adenosylmethionine (specific activity 16,000 cpm/pmol) in 100 mM tris-HCl, 1 mM EDTA, 1 mM DTT, pH 7.9 in a final volume of 150 μL. After heating the mixture at 37° C. for 5 to 25 minutes, 25 μL of the mixture is removed and added to 250 μL of heptane. The mixture is immediately vortexed to extract N-acetyl-S-farnesyl cysteine methyl ester into the organic phase. The mixture then is centrifuged for 30 seconds, and placed in a dry ice/acetone bath to quench the reaction. The heptane layer (200 μL) is removed and added to a 1.5 mL capless Eppendorf microcentrifuge tube. The heptane is evaporated in a Speedvac, and 25 μL of 1M sodium hydroxide is added to the remaining residue. The ^3 H-methanol produced from the hydrolysis of the ^3 H-methylesters is assayed by the vapor-phase equilibrium procedure as described in Stock, J. B., et al. (1984) Methods Enzymology, 106, 310-321 which is incorporated herein by reference.
A sample of 0.003 grams of 83,000×g. pellet from homogenized bovine brain after previous removal of the 14,000×g. pellet was subjected to the foregoing assay.

Chain of prenyl cysteine methyltransferase (A0AAA9SD88 1-284): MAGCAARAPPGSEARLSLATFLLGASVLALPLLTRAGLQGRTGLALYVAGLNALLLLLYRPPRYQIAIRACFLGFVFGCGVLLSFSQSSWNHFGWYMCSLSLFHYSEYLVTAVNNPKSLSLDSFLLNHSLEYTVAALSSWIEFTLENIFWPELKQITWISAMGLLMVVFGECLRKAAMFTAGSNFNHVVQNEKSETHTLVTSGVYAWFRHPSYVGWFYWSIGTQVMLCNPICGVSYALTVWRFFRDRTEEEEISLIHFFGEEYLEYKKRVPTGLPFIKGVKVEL

CC(=O)N[C@@H](CSC/C=C(\C)CC/C=C(\C)CCC=C(C)C)C(=O)O [AFC, N-Acetyl, S-trans,trans-farnesyl-L-cysteine]
cpm (w/50 μM AFC) (5 min): 199.5 cpm | cpm (w/50 μM AFC) (10 min): 343.5 cpm | cpm (w/50 μM AFC) (15 min): 393.5 cpm | cpm (w/50 μM AFC) (20 min): 543.0 cpm | cpm (w/50 μM AFC) (25 min): 616.0 cpm
